Measurements from patent US20080015222A1, “New Heterocyclic Amides” (ASTRAZENECA AB, priority 2004, published 2008).

Target: T1, hVR1 (Homo sapiens, UniProt Q8NER1)
T1 construct: expressed in transfected cells
Test: hVR1 FLIPR (Fluorometric Image Plate Reader) screening assay, IC50 determination
Assay type: cell-based
Conditions: CHO cells stably expressing hVR1
Experimental: 1. hVR1FLIPR (Fluorometric Image Plate Reader) Screening Assay
Transfected CHO cells, stably expessing hVR1 (15,000 cells/well) are seeded in 50 ul media in a black clear bottom 384 plate (Greiner) and grown in a humidified incubator (37° C., 2% CO2), 24-30 hours prior to experiment.
Subsequently, the media is removed from the cell plate by inversion and 2 μM Fluo-4 is added using a multidrop (Labsystems). Following the 40 minutes dye incubation in the dark at 37° C. and 2% CO2, the extracellular dye present is washed away using an EMBLA (Scatron), leaving the cells in 40 ul of assay buffer (1×HBSS, 10 mM D-Glucose, 1 mM CaCl2, 10 mM HEPES, 10×7.5% NaHCO3 and 2.5 mM Probenecid).
FLIPR Assay—IC50 Determination Protocol
For IC50 determinations the fluorescence is read using FLIPR filter 1 (em […]). A cellular baseline recording is taken for 30 seconds, followed by a 20 μl addition of 10, titrated half-log concentrations of the test compound, yielding cellular concentration ranging from 3 μM to 0.1 nM. Data is collected every 2 seconds for a further 5 minutes prior to the addition of a VR1 agonist solution: either 50 nM solution of capsaicin or MES (2-[N-morpholino]ethanesulfonic acid) buffer (pH 5.2), by the FLIPR pipettor. The FLIPR continues to collect data for a further 4 minutes. Compounds having antagonistic properties against the hVR1 will inhibit the increase in intracellular calcium in response to the capsaicin addition. This consequently leading to a reduction in fluorescence signal and providing a reduced fluorescence reading, compared with no compound, buffer controls. Data is exported by the FLIPR program as a sum of fluorescence calculated under the curve upon the addition of capsaicin. Maximum inhibition, Hill slope and IC50 data for each compound are generated.

[1] = agonist low pH (MES buffer pH 5.2)

T1 sequence (Q8NER1 whole entry): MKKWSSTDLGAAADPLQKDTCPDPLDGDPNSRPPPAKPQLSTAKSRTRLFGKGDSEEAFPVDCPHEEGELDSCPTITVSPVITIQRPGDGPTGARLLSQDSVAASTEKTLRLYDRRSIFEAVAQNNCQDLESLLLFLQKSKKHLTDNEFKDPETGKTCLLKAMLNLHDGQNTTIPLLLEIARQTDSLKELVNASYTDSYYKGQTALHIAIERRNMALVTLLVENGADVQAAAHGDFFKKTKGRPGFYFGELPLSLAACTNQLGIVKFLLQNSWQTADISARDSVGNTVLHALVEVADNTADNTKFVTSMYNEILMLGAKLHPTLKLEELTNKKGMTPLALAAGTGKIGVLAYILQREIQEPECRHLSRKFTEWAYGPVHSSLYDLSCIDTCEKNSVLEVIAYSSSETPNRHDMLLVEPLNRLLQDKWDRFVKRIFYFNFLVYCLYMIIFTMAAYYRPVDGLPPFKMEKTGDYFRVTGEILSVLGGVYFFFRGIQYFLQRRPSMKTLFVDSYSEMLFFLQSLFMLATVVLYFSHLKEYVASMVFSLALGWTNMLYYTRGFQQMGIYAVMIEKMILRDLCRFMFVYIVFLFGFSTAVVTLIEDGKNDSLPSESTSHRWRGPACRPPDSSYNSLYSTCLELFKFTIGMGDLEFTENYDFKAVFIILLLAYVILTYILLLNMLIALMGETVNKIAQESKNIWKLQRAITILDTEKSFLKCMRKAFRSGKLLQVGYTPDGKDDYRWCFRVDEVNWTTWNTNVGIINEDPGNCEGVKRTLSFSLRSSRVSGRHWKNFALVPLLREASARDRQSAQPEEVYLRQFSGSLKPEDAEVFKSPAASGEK

IC50 (agonist capsaicin (50 nM))	IC50 [1]	SMILES
22 nM	45 nM	COCCOc1cc(NC(=O)Cn2cnc3cccc([N+](=O)[O-])c32)cc(OC)c1 [Example 10, N-[3-Methoxy-5-(2-methoxyethoxy)phenyl]-2-(7-nitro-1H-benzimidazol-1-yl)acetamide]
48 nM	108 nM	O=C(Cn1cnc2cccc([N+](=O)[O-])c21)Nc1cc(F)c(F)c(F)c1 [Example 14, 2-(7-Nitro-1H-benzimidazol-1-yl)-N-(3,4,5-trifluorophenyl)acetamide]
77 nM	53 nM	COc1cc(NC(=O)Cn2cnc3cccc(C(C)=O)c32)cc(C(F)(F)F)c1 [Example 32, 2-(7-Acetyl-1H-benzimidazol-1-yl)-N-[3-methoxy-5-(trifluoromethyl)phenyl]acetamide]
518 nM	508 nM	COc1cc(NC(=O)Cn2cnc3cccc(C(C)=O)c32)cc(OC)c1 [Example 35, 2-(7-Acetyl-1H-benzimidazol-1-yl)-N-(3,5-dimethoxyphenyl)acetamide]
